Like-named read-outs stand apart in the source and are kept apart here.
Key:
biotin ligase (BirA) = biotin ligase (BirA) (Escherichia coli, UniProt P06709); experiment: Addition to acceptor peptide using BirA biotin ligase (HPLC); assay type: biochemical, E. coli; conditions: for Substrate for BirA: biotin ligase (BirA) from E. coli
avidin [1] = target: T1, avidin (Gallus gallus, UniProt P02701); experiment: Binding to avidin after click chemistry attachment of a fluorophore (native gel)
Description: 2) With protein (avidin) present: 0.29 mL 2-azidiobiotin solution (3.5 mM in Buffer A) was diluted in 0.71 mL Buffer A, then 1 mL avidin solution (0.21 mM) was added. The mixed solution was put in a shaker (25° C., 100 rpm) for 1 h. Then 0.5 mL alkynyl tag solution (10 mM in dioxane), 0.5 mL CuSO4-TTA solution (10 mM in ^tBuOH:H2O (4:1) solvents), 0.2 mL TCEP.HCl solution (50 mM in H2O), 0.5 mL NaHCO3 solution (200 mM in H2O), 0.25 mL ^tBuOH, 1 mL H2O were added to the reaction mixture. The mixture was put on the shaker (25° C., 100 rpm) for 2 h, then stored at 4° C. Buffer A: pH 7.4 20 mM phosphate, 150 mM NaCl buffer.

BirA = BirA (Escherichia coli, UniProt P06709); conditions: cited from earlier work
avidin [2] = target: T1, avidin; experiment: Binding affinity for avidin by isothermal titration calorimetry
other biotin ligases = conditions: cited from earlier work
biotin ligase [3] = conditions: cited from earlier work
biotin ligase [4] = target: T2, biotin ligase (Saccharomyces cerevisiae, UniProt P48445); conditions: cited from earlier work
T2 sequence (P48445 1-690): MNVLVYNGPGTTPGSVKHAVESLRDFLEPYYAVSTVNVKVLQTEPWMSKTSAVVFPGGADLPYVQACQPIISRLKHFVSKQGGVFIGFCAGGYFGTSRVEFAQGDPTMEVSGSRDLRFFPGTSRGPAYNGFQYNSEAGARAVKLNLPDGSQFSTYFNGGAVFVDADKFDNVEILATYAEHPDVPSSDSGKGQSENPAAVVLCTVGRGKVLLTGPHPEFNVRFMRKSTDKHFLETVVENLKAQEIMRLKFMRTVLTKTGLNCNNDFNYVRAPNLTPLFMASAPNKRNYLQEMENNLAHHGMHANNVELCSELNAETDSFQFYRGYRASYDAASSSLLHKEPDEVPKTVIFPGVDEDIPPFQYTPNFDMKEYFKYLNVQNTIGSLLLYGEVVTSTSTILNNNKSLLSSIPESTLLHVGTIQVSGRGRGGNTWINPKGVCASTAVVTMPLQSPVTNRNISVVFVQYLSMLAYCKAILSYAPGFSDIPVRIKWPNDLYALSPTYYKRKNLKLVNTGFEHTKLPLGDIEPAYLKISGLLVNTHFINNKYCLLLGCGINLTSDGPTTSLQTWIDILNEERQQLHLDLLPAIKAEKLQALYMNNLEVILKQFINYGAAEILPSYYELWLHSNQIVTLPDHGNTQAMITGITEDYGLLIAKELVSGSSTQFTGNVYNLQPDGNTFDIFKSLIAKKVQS

biotin ligase (BirA), sequence (P06709 whole entry): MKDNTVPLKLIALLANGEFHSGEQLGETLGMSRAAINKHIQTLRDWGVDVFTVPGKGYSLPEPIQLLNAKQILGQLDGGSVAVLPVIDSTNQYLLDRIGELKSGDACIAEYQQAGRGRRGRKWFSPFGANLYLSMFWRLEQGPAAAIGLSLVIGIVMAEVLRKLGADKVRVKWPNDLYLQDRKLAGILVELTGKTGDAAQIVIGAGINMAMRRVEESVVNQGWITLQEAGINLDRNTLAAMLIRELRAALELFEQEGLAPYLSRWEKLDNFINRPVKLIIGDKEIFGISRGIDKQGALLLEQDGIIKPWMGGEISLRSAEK
T1 sequence (P02701 25-152, species assumed): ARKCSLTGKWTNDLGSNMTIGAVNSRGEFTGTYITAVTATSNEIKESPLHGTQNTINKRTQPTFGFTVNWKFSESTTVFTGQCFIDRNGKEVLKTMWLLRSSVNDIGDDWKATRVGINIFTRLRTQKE
BirA, sequence (P06709 whole entry): as the sequence (P06709 whole entry) above

Row | Compound | Substrate for BirA (biotin ligase (BirA)) | Binds to avidin once covalently modified (avidin [1]) | Affinity for avidin (in words) (avidin [2]) | Binds to avidin (avidin [2]) | Substrate for other biotin ligases (other biotin ligases) | also measured
1 | O=C(O)CCCC[C@@H]1SC[C@@H]2CC(=O)C[C@@H]21 [ketone biotin, Ketone biotin] | Yes | No | – | – | – | BirA ligation yield (product inhibition) (BirA): ~50%
2 | 6-Azidodesthiobiotin | not substrates | No | low affinities | Very weak | – | Substrate for BirA (biotin ligase (BirA); listed as E 6-azido-desthiobiotin): No
3 | C#CCN1C(=O)N[C@H]2CS[C@@H](CCCCC(=O)O)[C@H]21 [cis-propargyl biotin] | No | No | – | No/very weak | Yes | Substrate of Pyrococcus horikoshii biotin ligase (biotin ligase [3]): could use; Substrate of Saccharomyces cerevisiae biotin ligase (biotin ligase [4]): could utilise
4 | C[C@@H]1NC(=O)N[C@@H]1CCCCCC(=O)O [desthiobiotin] | – | – | – | – | – | Substrate of Pyrococcus horikoshii biotin ligase (biotin ligase [3]): could use
5 | O=C(O)CCCC[C@@H]1SC[C@@H]2NC(=O)N[C@@H]21 [biotin] | Yes | – | – | Yes | Yes | –
6 | 8-Azidodesthiobiotin | not substrates | No | low affinities | Very weak | Yes | Substrate for BirA (biotin ligase (BirA); listed as D 8-azido-desthiobiotin): No
7 | [N-]=[N+]=NC(CCC[C@@H]1SC[C@@H]2NC(=O)N[C@@H]21)C(=O)O (stereo partly shown) [2-azidobiotin] | Yes | able to binded to avidin | moderate-good affinity | Yes | – | Level of conversion to acceptor peptide adduct by BirA, compared with biotin (biotin ligase (BirA); HPLC, 30 C, 1 h): very similar to that of biotin; Kd (avidin [2]; ITC, pH 7.4, 20 mM phosphate, 150 mM NaCl): ~100 nM; Binds to avidin once covalently modified (avidin [1]; listed as 2 Azidobiotin): Yes
